Measured values taken from publication PMC8286840, “Identifying SARS-CoV-2 antiviral compounds by screening for small molecule inhibitors of Nsp3 papain-like protease” (Biochemical Journal, 2021).
Structures can show the parent of a compound that is named as a salt. Where two headings read alike, the source gives them in different places. Where a SMILES comes first, the peptide text is derived from it. The star is where a group is joined. PhAc = O=C(Cc1ccccc1)*

Key:
[1] = molecular target: T1, SARS-CoV-2 PLpro (nsp3 1564–1878) (Severe acute respiratory syndrome coronavirus 2, UniProt P0DTD1); assay: biochemical; parameters: FRET-quenched peptide (Pro3) cleavage by PLpro, 10 min pre-incubation, slope over 20 min, normalised to no-compound control; settings: read-out: % of control remaining
[2] = molecular target: T1, SARS-CoV-2 PLpro (nsp3 1564–1878); assay: biochemical; parameters: FRET-quenched peptide (Pro3) cleavage by PLpro, 10 min pre-incubation, slope over 20 min, normalised to no-compound control; settings: read-out: % of control remaining; remark: listed apart in the source

O=C(O)CNC(=O)c1cccnc1 [Nicotinuric acid]
remaining activity at 1.25 µM ([1]; Well no.=6537, low concentration screen): 109%
remaining activity at 3.75 µM ([2]; Well no.=6537, high concentration screen): 105%

Cn1c(NCCN(CCO)CCCc2ccc([N+](=O)[O-])cc2)cc(=O)n(C)c1=O [Nifekalant]
remaining activity at 1.25 µM ([1]; Well no.=1975, low concentration screen): 105%
remaining activity at 3.75 µM ([2]; Well no.=1975, high concentration screen): 102%

O=C(O)c1cccnc1Nc1cccc(C(F)(F)F)c1 [Niflumic acid]
remaining activity at 1.25 µM ([1]; Well no.=995, low concentration screen): 99.1%
remaining activity at 1.25 µM ([1]; Well no.=2011, low concentration screen): 102%
remaining activity at 3.75 µM ([2]; Well no.=995, high concentration screen): 103%
remaining activity at 3.75 µM ([2]; Well no.=2011, high concentration screen): 106%

CC1CS(=O)(=O)CCN1/N=C/c1ccc([N+](=O)[O-])o1 (stereo not drawn) [Nifurtimox]
remaining activity at 1.25 µM ([1]; Well no.=5382, low concentration screen): 98.3%
remaining activity at 3.75 µM ([2]; Well no.=5382, high concentration screen): 99.2%

COC(=O)C1=C(C)NC(C)=C(C(=O)OCCCN2CCC(c3ccccc3)(c3ccccc3)CC2)[C@H]1c1cccc([N+](=O)[O-])c1 [Niguldipine]
remaining activity at 1.25 µM [1]: 105%
remaining activity at 3.75 µM [2]: 100%

Cc1cn(-c2cc(NC(=O)c3ccc(C)c(Nc4nccc(-c5cccnc5)n4)c3)cc(C(F)(F)F)c2)cn1 [Nilotinib]
remaining activity at 1.25 µM ([1]; Well no.=2793, low concentration screen): 111%
remaining activity at 3.75 µM ([2]; Well no.=2793, high concentration screen): 107%

CC1(C)NC(=O)N(c2ccc([N+](=O)[O-])c(C(F)(F)F)c2)C1=O [Nilutamide]
remaining activity at 1.25 µM ([1]; Well no.=1147, low concentration screen): 100%
remaining activity at 3.75 µM ([2]; Well no.=1147, high concentration screen): 101%

CS(=O)(=O)Nc1ccc([N+](=O)[O-])cc1Oc1ccccc1 [Nimesulide]
remaining activity at 1.25 µM ([1]; Well no.=1043, low concentration screen): 93.4%
remaining activity at 1.25 µM ([1]; Well no.=1574, low concentration screen): 95.5%
remaining activity at 3.75 µM ([2]; Well no.=1043, high concentration screen): 96.1%
remaining activity at 3.75 µM ([2]; Well no.=1574, high concentration screen): 94.3%

COCCOC(=O)C1=C(C)NC(C)=C(C(=O)OC(C)C)C1c1cccc([N+](=O)[O-])c1 (stereo not drawn) [Nimodipine]
remaining activity at 1.25 µM ([1]; Well no.=844, low concentration screen): 100%
remaining activity at 1.25 µM ([1]; Well no.=1717, low concentration screen): 104%
remaining activity at 3.75 µM ([2]; Well no.=844, high concentration screen): 97.1%
remaining activity at 3.75 µM ([2]; Well no.=1717, high concentration screen): 101%

Cc1ncc(CNC(=O)N(CCCl)N=O)c(N)n1 [Nimustine (hydrochloride)]
remaining activity at 1.25 µM ([1]; Well no.=6836, low concentration screen): 95.8%
remaining activity at 3.75 µM ([2]; Well no.=6836, high concentration screen): 95.5%

Cc1ncc(CNC(=O)N(CCCl)N=O)c(N)n1 [Nimustine hydrochloride]
remaining activity at 1.25 µM ([1]; Well no.=861, low concentration screen): 96.9%
remaining activity at 3.75 µM ([2]; Well no.=861, high concentration screen): 97.2%

COC(=O)C1=C(C)NC(C)=C(C(=O)OCC(C)C)C1c1ccccc1[N+](=O)[O-] (stereo not drawn) [Nisoldipine]
remaining activity at 1.25 µM ([1]; Well no.=1796, low concentration screen): 100%
remaining activity at 3.75 µM ([2]; Well no.=1796, high concentration screen): 100%

CNCCC(Oc1ccccc1OC)c1ccccc1 (stereo not drawn) [Nisoxetine hydrochloride]
remaining activity at 1.25 µM ([1]; Well no.=892, low concentration screen): 100%
remaining activity at 3.75 µM ([2]; Well no.=892, high concentration screen): 99.8%

CNCCC(Oc1ccccc1OC)c1ccccc1 (stereo not drawn) [Nisoxetine.HCl]
remaining activity at 1.25 µM ([1]; Well no.=1789, low concentration screen): 103%
remaining activity at 3.75 µM ([2]; Well no.=1789, high concentration screen): 99.5%

CC(=O)Oc1ccccc1C(=O)Nc1ncc([N+](=O)[O-])s1 [Nitazoxanide]
remaining activity at 1.25 µM ([1]; Well no.=5482, low concentration screen): 101%
remaining activity at 3.75 µM ([2]; Well no.=5482, high concentration screen): 101%

O=C1CCCC(=O)C1C(=O)c1ccc(C(F)(F)F)cc1[N+](=O)[O-] [Nitisinone]
remaining activity at 1.25 µM ([1]; Well no.=5887, low concentration screen): 103%
remaining activity at 3.75 µM ([2]; Well no.=5887, high concentration screen): 103%

CCOC(=O)C1=C(C)NC(C)=C(C(=O)OC)C1c1cccc([N+](=O)[O-])c1 (stereo not drawn) [Nitrendipine]
remaining activity at 1.25 µM ([1]; Well no.=796, low concentration screen): 92.2%
remaining activity at 1.25 µM ([1]; Well no.=1719, low concentration screen): 99.4%
remaining activity at 3.75 µM ([2]; Well no.=796, high concentration screen): 94.4%
remaining activity at 3.75 µM ([2]; Well no.=1719, high concentration screen): 103%

CNC(=C[N+](=O)[O-])NCCSCc1csc(CN(C)C)n1 [Nizatidine]
remaining activity at 1.25 µM ([1]; Well no.=4628, low concentration screen): 101%
remaining activity at 1.25 µM ([1]; Well no.=7378, low concentration screen): 99.2%
remaining activity at 3.75 µM ([2]; Well no.=4628, high concentration screen): 99.2%
remaining activity at 3.75 µM ([2]; Well no.=7378, high concentration screen): 98.9%

COC(=O)Nc1nc2cc(C(=O)c3cccs3)ccc2[nH]1 [Nocodazole]
remaining activity at 1.25 µM ([1]; Well no.=824, low concentration screen): 99.3%
remaining activity at 1.25 µM ([1]; Well no.=6258, low concentration screen): 96.5%
remaining activity at 3.75 µM ([2]; Well no.=824, high concentration screen): 101%
remaining activity at 3.75 µM ([2]; Well no.=6258, high concentration screen): 94.1%

Cc1ccc2nc(N)[nH]c(=O)c2c1Sc1ccncc1 [Nolatrexed dihydrochloride]
remaining activity at 1.25 µM ([1]; Well no.=6980, low concentration screen): 103%
remaining activity at 3.75 µM ([2]; Well no.=6980, high concentration screen): 100%

CN1Cc2c(N)cccc2C(c2ccccc2)C1 (stereo not drawn) [Nomifensine (maleate)]
remaining activity at 1.25 µM ([1]; Well no.=8395, low concentration screen): 97.9%
remaining activity at 3.75 µM ([2]; Well no.=8395, high concentration screen): 95.9%

CN1Cc2c(N)cccc2C(c2ccccc2)C1 (stereo not drawn) [Nomifensine maleate]
remaining activity at 1.25 µM ([1]; Well no.=1139, low concentration screen): 94.1%
remaining activity at 3.75 µM ([2]; Well no.=1139, high concentration screen): 96.7%

C[C@@H]1C[C@H]2CC[C@H](O2)[C@H](C)C(=O)O[C@@H](C)C[C@@H]2CC[C@@H](O2)[C@@H](C)C(=O)O[C@H](C)C[C@H]2CC[C@H](O2)[C@H](C)C(=O)O[C@@H](C)C[C@@H]2CC[C@@H](O2)[C@@H](C)C(=O)O1 [Nonactin]
remaining activity at 1.25 µM ([1]; Well no.=3330, low concentration screen): 95.5%
remaining activity at 3.75 µM ([2]; Well no.=3330, high concentration screen): 94.1%

CCCCCCCCCCCCCCCCCCC(=O)O [Nonadecanoic acid]
remaining activity at 1.25 µM ([1]; Well no.=4362, low concentration screen): 100%
remaining activity at 3.75 µM ([2]; Well no.=4362, high concentration screen): 95.6%

CCOC(=O)CNC(=O)[C@@H]1CCCN1C(=O)Cc1ccccc1 [Noopept] (PhAc-Pro-Gly-OEt)
remaining activity at 1.25 µM ([1]; Well no.=5674, low concentration screen): 104%
remaining activity at 3.75 µM ([2]; Well no.=5674, high concentration screen): 104%

O=C1OC(=O)[C@H]2[C@@H]1[C@@H]1CC[C@H]2O1 [Norcantharidin]
remaining activity at 1.25 µM ([1]; Well no.=909, low concentration screen): 100%
remaining activity at 3.75 µM ([2]; Well no.=909, high concentration screen): 97.7%

c1ccc2c3c([nH]c2c1)CNCC3 [Noreleagnine]
remaining activity at 1.25 µM ([1]; Well no.=3260, low concentration screen): 101%
remaining activity at 3.75 µM ([2]; Well no.=3260, high concentration screen): 101%

NC[C@H](O)c1ccc(O)c(O)c1 [Norepinephrine (bitartrate monohydrate)]
remaining activity at 1.25 µM ([1]; Well no.=6517, low concentration screen): 101%
remaining activity at 3.75 µM ([2]; Well no.=6517, high concentration screen): 98.7%

NC[C@H](O)c1ccc(O)c(O)c1 [Norepinephrine]
remaining activity at 1.25 µM ([1]; Well no.=7015, low concentration screen): 106%
remaining activity at 3.75 µM ([2]; Well no.=7015, high concentration screen): 103%

C#C[C@]1(OC(C)=O)CC[C@H]2[C@@H]3CCC4=CC(=O)CC[C@@H]4[C@H]3CC[C@@]21C [Norethindrone acetate]
remaining activity at 1.25 µM ([1]; Well no.=5895, low concentration screen): 99.8%
remaining activity at 3.75 µM ([2]; Well no.=5895, high concentration screen): 101%

C#C[C@]1(O)CC[C@H]2[C@@H]3CCC4=CC(=O)CC[C@@H]4[C@H]3CC[C@@]21C [Norethindrone]
remaining activity at 1.25 µM ([1]; Well no.=2013, low concentration screen): 96.6%
remaining activity at 3.75 µM ([2]; Well no.=2013, high concentration screen): 96.6%

CCn1cc(C(=O)O)c(=O)c2cc(F)c(N3CCNCC3)cc21 [Norfloxacin]
remaining activity at 1.25 µM ([1]; Well no.=2043, low concentration screen): 109%
remaining activity at 3.75 µM ([2]; Well no.=2043, high concentration screen): 105%

C/C=C1/CN2CC[C@]34C(=C(C=O)[C@H]1C[C@H]23)Nc1ccccc14 [Norfluorocurarine]
remaining activity at 1.25 µM ([1]; Well no.=3165, low concentration screen): 95.2%
remaining activity at 3.75 µM ([2]; Well no.=3165, high concentration screen): 97.4%
